Experimental data published in PMC5574958, “Radiosynthesis and Preclinical Evaluation of [^18F]F-DPA, A Novel Pyrazolo[1,5a]pyrimidine Acetamide TSPO Radioligand, in Healthy Sprague Dawley Rats” (Molecular Imaging and Biology, 2017).

Tests used:
TSPO = conditions: read-out: K i (TSPO affinity); cited from earlier work
CBR = conditions: read-out: K i CBR (selectivity); cited from earlier work
Ex vivo biodistribution = assay type: in vivo, Sprague Dawley rats; conditions: for Uptake of fluorine-18-radioactivity, Harderian gland / Uptake of fluorine-18-radioactivity, Brain / Uptake of fluorine-18-radioactivity, Brown fat / Uptake of fluorine-18-radioactivity, Eye x2 / Uptake of fluorine-18-radioactivity, Injection site (tail) / Uptake of fluorine-18-radioactivity, Large int. Wall + contents / Uptake of fluorine-18-radioactivity, Liver / Uptake of fluorine-18-radioactivity, Lung / Uptake of fluorine-18-radioactivity, Muscle / Uptake of fluorine-18-radioactivity, Salivary x2 / Uptake of fluorine-18-radioactivity, Small int. wall + contents / Uptake of fluorine-18-radioactivity, Stomach wall + contents / Uptake of fluorine-18-radioactivity, Testis: mean, n = 3
Protocol: After sacrifice (5, 15, 30, 60, and 90 min after injection, n = 3, for every time point and radiotracer), the blood was collected into Li-heparin tubes and transcardial perfusion with saline was conducted rapidly in order to eliminate the blood from the whole body. Following this, the organs of the animals were collected, individually weighed, and the radioactivity was measured using a gamma counter (Wizard^2 3 × 3″, PerkinElmer, Turku, Finland). The decay-corrected radioactivity is reported as percentage of injected dose per gram (%ID/g).

[1] = Plasma protein binding (ultrafiltration of plasma after tracer injection); assay type: in vivo, Sprague Dawley rats; conditions: 15 min after injection, 30 kDa ultrafiltration, n = 3
Protocol: After 15 min, the animals were sacrificed and the blood was collected into Li-heparin tubes and centrifuged (3000×g, 10 min). A 10-μl aliquot of the plasma was spotted onto a TLC plate; following this, the remaining plasma was filtered by ultrafiltration using Microsep 30K Omega (Pall Life Sciences, Mexico) with a cut-off of 30 kDa. A 10-μl aliquot of the resulting supernatant was also spotted onto the TLC plate. The plates were exposed onto an imaging plate (Fuji BAS Imaging Plate TR2025, Fuji Photo Film Co., Ltd., Tokyo, Japan) for approximately two half-lives of fluorine-18 (3.5 to 4 h). After the exposure, the imaging plates were scanned using a BAS-5000 reader (Fuji, Japan) with a resolution of 50 μm and the saved images were analyzed using TINA software (version 2.10 g, Raytest, Isotopenmessgeräte, GmbH, Straubenhardt, Germany).

[2] = RadioTLC analyses of radiometabolites in plasma and brain homogenates; assay type: in vivo, Sprague Dawley rats; conditions: 90 min after injection, n = 3
Protocol: The blood samples were taken into Li-heparin tubes and centrifuged (3000×g, 10 min). The plasma was transferred to an Eppendorf tube and the plasma proteins were precipitated by addition of 1.5 parts of MeOH by volume. Following a further centrifugation (12,000×g, 4 min), 20 μl of the supernatant was spotted onto an aluminum-backed silica gel 60/Kieselguhr F254 TLC plate (EMD Millipore 1.05567.0001, Merck Millipore, Darmstadt, Germany).
Brain samples from the cortex were homogenized with approximately 200 μl of 1:1 v/v of MeOH and water; the mixture was transferred to an Eppendorf tube and centrifuged (12,000×g, 4 min). An aliquot (20 μl) of the supernatant was spotted onto the TLC plate.
The TLC plates were developed with a mixture of dichloromethane and methanol (9:1, v/v) for a distance of 6 cm. Following this, the plates were exposed onto an imaging plate (Fuji BAS Imaging Plate TR2025, Fuji Photo Film Co., Ltd., Tokyo, Japan) for approximately two half-lives of fluorine-18 (3.5 to 4 h). After the exposure, the imaging plates were scanned using a BAS-5000 reader (Fuji, Japan) with a resolution of 50 μm and the saved images were analyzed using TINA software (version 2.10 g, Raytest, Isotopenmessgeräte, GmbH, Straubenhardt, Germany).

CCN(CC)C(=O)Cc1c(-c2ccc(F)cc2)nn2c(C)cc(C)nc12 [F-DPA, N,N-Diethyl-2-(2-(4-fluorophenyl)-5,7-dimethylpyrazolo[1,5-a]pyrimidin-3-yl)acetamide]
Ki (TSPO): 1.7 nM
Ki (CBR): > 1000 nM

CCN(CC)C(=O)Cc1c(-c2ccc(OCC[18F])cc2)nn2c(C)cc(C)nc12 [[^18F]DPA-714, reference compound]
Uptake of fluorine-18-radioactivity, Harderian gland (Ex vivo biodistribution; 5 min after injection): 0.40 %ID/g tissue
Uptake of fluorine-18-radioactivity, Harderian gland (Ex vivo biodistribution; 15 min after injection): 0.52 %ID/g tissue
Uptake of fluorine-18-radioactivity, Harderian gland (Ex vivo biodistribution; 30 min after injection): 0.45 %ID/g tissue
Uptake of fluorine-18-radioactivity, Harderian gland (Ex vivo biodistribution; 60 min after injection): 0.54 %ID/g tissue
Uptake of fluorine-18-radioactivity, Harderian gland (Ex vivo biodistribution; 90 min after injection): 0.43 %ID/g tissue
Accumulation of radioactivity in the bone (defluorination in vivo) (Ex vivo biodistribution; after the initial uptake at 5 min, up to 90 min): no significant accumulation of radioactivity in the bone
Uptake of fluorine-18-radioactivity, Brain (Ex vivo biodistribution; 5 min after injection): 0.29 %ID/g tissue
Uptake of fluorine-18-radioactivity, Brain (Ex vivo biodistribution; 15 min after injection): 0.17 %ID/g tissue
Uptake of fluorine-18-radioactivity, Brain (Ex vivo biodistribution; 30 min after injection): 0.12 %ID/g tissue
Uptake of fluorine-18-radioactivity, Brain (Ex vivo biodistribution; 60 min after injection): 0.09 %ID/g tissue
Uptake of fluorine-18-radioactivity, Brain (Ex vivo biodistribution; 90 min after injection): 0.08 %ID/g tissue
Uptake of fluorine-18-radioactivity, Brown fat (Ex vivo biodistribution; 5 min after injection): 0.22 %ID/g tissue
Uptake of fluorine-18-radioactivity, Brown fat (Ex vivo biodistribution; 15 min after injection): 0.31 %ID/g tissue
Uptake of fluorine-18-radioactivity, Brown fat (Ex vivo biodistribution; 30 min after injection): 0.51 %ID/g tissue
Uptake of fluorine-18-radioactivity, Brown fat (Ex vivo biodistribution; 60 min after injection): 1.07 %ID/g tissue
Uptake of fluorine-18-radioactivity, Brown fat (Ex vivo biodistribution; 90 min after injection): 1.25 %ID/g tissue
Uptake of fluorine-18-radioactivity, Eye x2 (Ex vivo biodistribution; eye x2, 5 min after injection): 0.28 %ID/g tissue
Uptake of fluorine-18-radioactivity, Eye x2 (Ex vivo biodistribution; eye x2, 15 min after injection): 0.29 %ID/g tissue
Uptake of fluorine-18-radioactivity, Eye x2 (Ex vivo biodistribution; eye x2, 30 min after injection): 0.26 %ID/g tissue
Uptake of fluorine-18-radioactivity, Eye x2 (Ex vivo biodistribution; eye x2, 60 min after injection): 0.22 %ID/g tissue
Uptake of fluorine-18-radioactivity, Eye x2 (Ex vivo biodistribution; eye x2, 90 min after injection): 0.20 %ID/g tissue
Uptake of fluorine-18-radioactivity, Injection site (tail) (Ex vivo biodistribution; 5 min after injection): 0.49 %ID/g tissue
Uptake of fluorine-18-radioactivity, Injection site (tail) (Ex vivo biodistribution; 15 min after injection): 0.29 %ID/g tissue
Uptake of fluorine-18-radioactivity, Injection site (tail) (Ex vivo biodistribution; 30 min after injection): 0.34 %ID/g tissue
Uptake of fluorine-18-radioactivity, Injection site (tail) (Ex vivo biodistribution; 60 min after injection): 0.38 %ID/g tissue
Uptake of fluorine-18-radioactivity, Injection site (tail) (Ex vivo biodistribution; 90 min after injection): 0.24 %ID/g tissue
Uptake of fluorine-18-radioactivity, Large int. Wall + contents (Ex vivo biodistribution; 5 min after injection): 0.20 %ID/g tissue
Uptake of fluorine-18-radioactivity, Large int. Wall + contents (Ex vivo biodistribution; 15 min after injection): 0.24 %ID/g tissue
Uptake of fluorine-18-radioactivity, Large int. Wall + contents (Ex vivo biodistribution; 30 min after injection): 0.26 %ID/g tissue
Uptake of fluorine-18-radioactivity, Large int. Wall + contents (Ex vivo biodistribution; 60 min after injection): 0.41 %ID/g tissue
Uptake of fluorine-18-radioactivity, Large int. Wall + contents (Ex vivo biodistribution; 90 min after injection): 0.29 %ID/g tissue
Uptake of fluorine-18-radioactivity, Liver (Ex vivo biodistribution; 5 min after injection): 0.78 %ID/g tissue
Uptake of fluorine-18-radioactivity, Liver (Ex vivo biodistribution; 15 min after injection): 0.87 %ID/g tissue
Uptake of fluorine-18-radioactivity, Liver (Ex vivo biodistribution; 30 min after injection): 0.60 %ID/g tissue
Uptake of fluorine-18-radioactivity, Liver (Ex vivo biodistribution; 60 min after injection): 0.37 %ID/g tissue
Uptake of fluorine-18-radioactivity, Liver (Ex vivo biodistribution; 90 min after injection): 0.26 %ID/g tissue
Uptake of fluorine-18-radioactivity, Lung (Ex vivo biodistribution; 5 min after injection): 19.83 %ID/g tissue
Uptake of fluorine-18-radioactivity, Lung (Ex vivo biodistribution; 15 min after injection): 10.24 %ID/g tissue
Uptake of fluorine-18-radioactivity, Lung (Ex vivo biodistribution; 30 min after injection): 5.73 %ID/g tissue
Uptake of fluorine-18-radioactivity, Lung (Ex vivo biodistribution; 60 min after injection): 3.01 %ID/g tissue
Uptake of fluorine-18-radioactivity, Lung (Ex vivo biodistribution; 90 min after injection): 2.00 %ID/g tissue
Uptake of fluorine-18-radioactivity, Muscle (Ex vivo biodistribution; 5 min after injection): 0.07 %ID/g tissue
Uptake of fluorine-18-radioactivity, Muscle (Ex vivo biodistribution; 15 min after injection): 0.07 %ID/g tissue
Uptake of fluorine-18-radioactivity, Muscle (Ex vivo biodistribution; 30 min after injection): 0.11 %ID/g tissue
Uptake of fluorine-18-radioactivity, Muscle (Ex vivo biodistribution; 60 min after injection): 0.16 %ID/g tissue
Uptake of fluorine-18-radioactivity, Muscle (Ex vivo biodistribution; 90 min after injection): 0.18 %ID/g tissue
Uptake of fluorine-18-radioactivity, Salivary x2 (Ex vivo biodistribution; salivary x2, 5 min after injection): 0.59 %ID/g tissue
Uptake of fluorine-18-radioactivity, Salivary x2 (Ex vivo biodistribution; salivary x2, 15 min after injection): 1.34 %ID/g tissue
Uptake of fluorine-18-radioactivity, Salivary x2 (Ex vivo biodistribution; salivary x2, 30 min after injection): 0.88 %ID/g tissue
Uptake of fluorine-18-radioactivity, Salivary x2 (Ex vivo biodistribution; salivary x2, 60 min after injection): 1.00 %ID/g tissue
Uptake of fluorine-18-radioactivity, Salivary x2 (Ex vivo biodistribution; salivary x2, 90 min after injection): 0.89 %ID/g tissue
Uptake of fluorine-18-radioactivity, Small int. wall + contents (Ex vivo biodistribution; 5 min after injection): 0.69 %ID/g tissue
Uptake of fluorine-18-radioactivity, Small int. wall + contents (Ex vivo biodistribution; 15 min after injection): 1.07 %ID/g tissue
Uptake of fluorine-18-radioactivity, Small int. wall + contents (Ex vivo biodistribution; 30 min after injection): 1.44 %ID/g tissue
Uptake of fluorine-18-radioactivity, Small int. wall + contents (Ex vivo biodistribution; 60 min after injection): 1.80 %ID/g tissue
Uptake of fluorine-18-radioactivity, Small int. wall + contents (Ex vivo biodistribution; 90 min after injection): 2.04 %ID/g tissue
Uptake of fluorine-18-radioactivity, Stomach wall + contents (Ex vivo biodistribution; 5 min after injection): 0.27 %ID/g tissue
Uptake of fluorine-18-radioactivity, Stomach wall + contents (Ex vivo biodistribution; 15 min after injection): 0.65 %ID/g tissue
Uptake of fluorine-18-radioactivity, Stomach wall + contents (Ex vivo biodistribution; 30 min after injection): 0.43 %ID/g tissue
Uptake of fluorine-18-radioactivity, Stomach wall + contents (Ex vivo biodistribution; 60 min after injection): 0.33 %ID/g tissue
Uptake of fluorine-18-radioactivity, Stomach wall + contents (Ex vivo biodistribution; 90 min after injection): 0.44 %ID/g tissue
Uptake of fluorine-18-radioactivity, Testis (Ex vivo biodistribution; 5 min after injection): 0.11 %ID/g tissue
Uptake of fluorine-18-radioactivity, Testis (Ex vivo biodistribution; 15 min after injection): 0.10 %ID/g tissue
Uptake of fluorine-18-radioactivity, Testis (Ex vivo biodistribution; 30 min after injection): 0.13 %ID/g tissue
Uptake of fluorine-18-radioactivity, Testis (Ex vivo biodistribution; 60 min after injection): 0.14 %ID/g tissue
Uptake of fluorine-18-radioactivity, Testis (Ex vivo biodistribution; 90 min after injection): 0.14 %ID/g tissue
Ki (CBR): > 1000 nM
Fraction of radioactivity unbound to the plasma proteins [1]: 32.8 ± 8.8%
Unchanged radiotracer, share of radioactivity in the brain ([2]; brain homogenate): 53.6 ± 1.6%
Unchanged radiotracer, share of radioactivity in the plasma ([2]; plasma): 11.1 ± 2.6%
